# Results as given in US8871681B2, “Herbicidal compositions comprising 4-amino-3-chloro-5-fluoro-6-(4-chloro-2-fluoro-3-methoxyphenyl) pyridine-2-carboxylic acid or a derivative thereof and certain sulfonylureas” (Dow AgroSciences LLC, priority 2012, dated 2014).
# Several values for one entry are separate records, joined by “and”; a condition that tells them apart may be missing. Equal values may be shown once.
# Key:
# [1] = test system: DIGSA (Digitaria sanguinalis, large crabgrass); test: Postemergence foliar-applied weed control, direct seeded rice, greenhouse (Example I); type: in vivo, Digitaria sanguinalis (L.) Scop.; settings: for Visual Weed Control (%) - 21 DAA DIGSA Obs: Table 27, foliar-applied
# In short: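 Greenhouse-grown plants in loam/sandy loam–grit soil (14 h photoperiod, ~29/26 °C) were sprayed postemergence at the first to fourth true leaf stage. Compound A (acid equivalent basis) and ALS-inhibiting sulfonylureas (active ingredient basis) were applied alone and in combination in 1.25% (v/v) crop oil concentrate at 187 L/ha by track sprayer; controls received solvent blank.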
# [2] = test system: CYPES (Cyperus esculentus, yellow nutsedge); test: as above; type: in vivo, Cyperus esculentus L.; settings: 20 DAA
# Text: (§1) Seeds or nutlets of the desired test plant species were planted in a soil matrix prepared by mixing a loam or sandy loam soil (e.g., 28.6 percent silt, 18.8 percent clay, and 52.6 percent sand, with a pH of about 5.8 and an organic matter content of about 1.8 percent) and calcareous grit in an 80 to 20 ratio. The soil matrix was contained in plastic pots with a volume of 1 quart and a surface area of 83.6 square centimeters (cm^2). When required to ensure good germination and healthy plants, a fungicide treatment and/or other chemical or physical treatment was applied. The plants were grown for 8-22 days in a greenhouse with an approximate 14 h photoperiod which was maintained at about 29° C. during the day and 26° C. during the night. Nutrients (Peters Excel® 15-5-15 5-Ca 2-Mg and iron chelate) were applied in the irrigation solution as needed and water was added on a regular basis. Supplemental lighting was provided with overhead metal halide 1000-Watt lamps as necessary. The plants were employed for testing when they reached the first through fourth true leaf stage.
# (§2) Treatments consisted of the acid or esters of 4-amino-3-chloro-5-fluoro-6-(4-chloro-2-fluoro-3-methoxy-phenyl)pyridine-2-carboxylic acid (Compound A), each formulated as an SC, and various herbicidal components alone and in combination. Forms of compound A were applied on an acid equivalent basis.
# (§3) Other herbicidal components were applied on an active ingredient basis and included acetolactate synthase (ALS)-inhibiting herbicides (sulfonylurea chemical class) azimsulfuron formulated as Gulliver®, bensulfuron-methyl formulated as Londax® 60DF, cyclosulfamuron (technical material), ethoxysulfuron formulated as Sunrice® 15 WDG, flazasulfuron formulated as Katana®, flucetosulfuron formulated as Sukedachi® 1KG G, foramsulfuron formulated as Option®, imazosulfuron formulated as Brazzos® WG, iodosulfuron-methyl-sodium formulated as Hussar®, metsulfuron-methyl formulated as Lorate®, nicosulfuron formulated as Accent®, orthosulfamuron formulated as Strada® WG, primisulfuron-methyl (technical material), propyrisulfuron formulated as Zeta One®, rimsulfuron formulated as Matrix® WG, sulfometuron-methyl formulated as Oust®, and trifloxysulfuron-sodium formulated as Monument® 75WG.
# (§4) Treatment requirements were calculated based upon the rates being tested, the concentration of active ingredient or acid equivalent in the formulation, and a 12 mL application volume at a rate of 187 L/ha.
# (§5) For treatments comprised of formulated compounds, measured amounts of compounds were placed individually in 25 mL glass vials and diluted in a volume of 1.25% (v/v) Agri-Dex® crop oil concentrated to obtain 12× stock solutions. […] Application solutions were prepared by adding an appropriate amount of each stock solution (e.g., 1 mL) and diluted to the appropriate final concentrations with the addition of 10 mL of an aqueous mixture of 1.25% (v/v) crop oil concentrate so that the final spray solutions contained 1.25+/−0.05% (v/v) Agrcrop oil concentrate.
# (§6) For treatments comprised of formulated and technical compounds, weighed amounts of the technical materials were placed individually in 25 mL glass vials and dissolved in a volume of 97:3 v/v acetone/DMSO to obtain 12× stock solutions, and measured amounts of the formulated compounds were placed individually in 25 mL glass vials and diluted in a volume of 1.25% (v/v) crop oil concentrate to obtain 12× stock solutions. […] Application solutions were prepared by adding an appropriate amount of each stock solution (e.g., 1 mL) and diluted to the appropriate final concentrations with the addition of an appropriate amount of an aqueous mixture of 1.5% (v/v) crop oil concentrate so that the final spray solutions contained 1.25% (v/v) crop oil concentrate. […]
# [3] = test system: ISCRU (Ischaemum rugosum, saramollagrass); test: as above; type: in vivo, Ischaemum rugosum Salisb.
# Text: as §1, §2, §3, §4, §5, §6
# [4] = test system: CIRAR (Cirsium arvense, Canada thistle); test: Post-emergence foliar-applied weed control in cereal crops, greenhouse (Example III); type: in vivo, Cirsium arvense (L.) Scop.
# In short: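 Greenhouse plants at the second or third true leaf stage (14 hour photoperiod, about 18/17 °C) were track-sprayed at 187 L/ha with Compound A SC, a second cereal herbicide, or their combinations, using 1.25% v/v crop oil concentrate. Injury was scored visually at 20-22 days against solvent-blank controls on a 0–100% scale. Expected mixture effects were calculated with Colby's equation.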
smiles,measurement,setting,value
"COc1c(Cl)ccc(-c2nc(C(=O)O)c(Cl)c(N)c2F)c1F [Compound A Acid, 4-amino-3-chloro-5-fluoro-6-(4-chloro-2-fluoro-3-methoxy-phenyl)pyridine-2-carboxylic acid]",Visual Weed Control (%) Obs,"[1]; 20 DAA, 5.3 gae/ha",10%
same,Visual Weed Control (%) Obs,"[1]; 24 DAA, 17.5 gae/ha",25%
same,Visual Weed Control (%) Obs,[2]; 4.38 gae/ha,30%
same,Visual Weed Control (%) Obs,[2]; 5.3 gae/ha,0%
same,Visual Weed Control (%) Obs,[2]; 8.75 gae/ha,70%
COc1c(Cl)ccc(-c2nc(C(=O)OCc3ccccc3)c(Cl)c(N)c2F)c1F [Compound A Benzyl Ester],Visual Weed Control (%) Obs,"[1]; 20 DAA, 4.38 gae/ha",20%
same,Visual Weed Control (%) Obs,"[1]; 20 DAA, 8.75 gae/ha",15%
same,Visual Weed Control (%) Obs,"[1]; 20 DAA, 17.5 gae/ha",20%
same,Visual Weed Control (%) Obs,"[1]; 22 DAA, 8 gae/ha",20%
same,Visual Weed Control (%) Obs,"[1]; 22 DAA, 16 gae/ha",20%
same,Visual Weed Control (%) Obs,"[1]; 22 DAA, 32 gae/ha",35%
same,Visual Weed Control (%) - 21 DAA DIGSA Obs,[1]; 8 gae/ha alone,25%
same,Visual Weed Control (%) - 21 DAA DIGSA Obs,[1]; 16 gae/ha alone,30%
same,Visual Weed Control (%) - 21 DAA DIGSA Obs,[1]; 32 gae/ha alone,50%
same,Visual Weed Control (%) Obs,"[3]; 20 DAA, 6 gae/ha",30%
same,Visual Weed Control (%) Obs,"[3]; 20 DAA, 24 gae/ha",35%
same,Visual Weed Control (%) Obs,"[3]; 21 DAA, 8 gae/ha",20%
same,Visual Weed Control (%) Obs,"[3]; 21 DAA, 16 gae/ha",0%
same,pest or weed control at 8.75 g/ha,"[4]; Cirsium arvense, post-emergence, read-out: Weed Control CIRAR Obs",40%
same,Weed Control CIRAR Obs,"[4]; Table 53, foliar-applied, after 20-22 days, 8.75 gai/ha alone",40%
same,Weed Control CIRAR Obs,"[4]; Table 54, foliar-applied, after 20-22 days, 8.75 gai/ha alone",40%
same,Weed Control CIRAR Obs,"[4]; Table 55, foliar-applied, after 20-22 days, 8.75 gai/ha alone",40%
same,Weed Control CIRAR Obs,"[4]; Table 56, foliar-applied, after 20-22 days, 8.75 gai/ha alone",40%
same,Weed Control CIRAR Obs,"[4]; Table 57, foliar-applied, after 20-22 days, 8.75 gai/ha Compound A Benzyl Ester alone",40%
same,Weed Control CIRAR Obs,"[4]; Table 58 (cereal), foliar-applied, after 20-22 days, 8.75 gai/ha alone",40%
same,Weed Control CIRAR Obs,"[4]; Table 59 (cereal), foliar-applied, after 20-22 days, 8.75 gai/ha alone",40%
same,Visual Weed Control (%) Obs,[2]; 4.38 gae/ha,70% and 85%
same,Visual Weed Control (%) Obs,[2]; 8.75 gae/ha,80% and 90%
same,Visual Weed Control (%) Obs,[2]; 17.5 gae/ha,90%
"COC(=O)c1ccccc1S(=O)(=O)NC(=O)Nc1nc(C)nc(OC)n1 [Metsulfuron-methyl, methyl 2-[[[[(4-methoxy-6-methyl-1,3,5-triazin-2-yl)amino]carbonyl]amino]sulfonyl]benzoate, reference compound]",pest or weed control at 1.1 g/ha,"[4]; Cirsium arvense, post-emergence, Table 56, foliar-applied, after 20-22 days, 1.1 gai/ha alone, read-out: Weed Control CIRAR Obs",65%
"COC(=O)c1ccccc1CS(=O)(=O)NC(=O)Nc1nc(OC)cc(OC)n1 [Bensulfuron-methyl, methyl 2-[[[[[(4,6-dimethoxy-2-pyrimidinyl)amino]carbonyl]amino]sulfonyl]methyl]benzoate, reference compound]",Visual Weed Control (%) Obs,"[3]; 20 DAA, 70 gai/ha",30%
